Measurements from paper PMC6979384, “Characterization of the plant homeodomain (PHD) reader family for their histone tail interactions” (Epigenetics & Chromatin, 2020).

Columns and labels:
Assay in all cases: Histone peptide microarray
Format in all cases: binding, human
AIRE (PP) = settings: GST-tagged AIRE (PP); histone peptide array; arrays performed twice, n of 4
Outline: (§1)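 Binding read as mean relative signal from 4 replicates; microarray held 293 synthetic histone peptides with single or combinatorial PTMs. Each GST-tagged PHD reader was applied at 0.5 μM using the optimized Petell protocol.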

BAZ2B = settings: GST-tagged BAZ2B; histone peptide array; arrays performed twice, n of 4
Outline: as §1

BPTF (PB) = settings: GST-tagged BPTF (PB = PHD + Bromodomain); histone peptide array; arrays performed twice, n of 4
Outline: as §1

CHD4 (PPCC) = settings: GST-tagged CHD4 (PPCC = Dual PHD + Dual Chromodomain); histone peptide array; arrays performed twice, n of 4
Outline: as §1

CHD5 (PCC) = settings: GST-tagged CHD5 (PCC = PHD + Dual Chromodomain); histone peptide array; arrays performed twice, n of 4
Outline: as §1

CHD5 (PPCC) = settings: GST-tagged CHD5 (PPCC = Dual PHD + Dual Chromodomain); histone peptide array; arrays performed twice, n of 4
Outline: as §1

DIDO1 = settings: GST-tagged DIDO1; histone peptide array; arrays performed twice, n of 4
Outline: as §1

DPF2 (PPC2W2) = settings: GST-tagged DPF2 (PPC2W2 = Dual PHD + C2W2-type Zn-finger); histone peptide array; arrays performed twice, n of 4
Outline: as §1

ING1 = settings: GST-tagged ING1; histone peptide array; arrays performed twice, n of 4
Outline: as §1

ING2 = settings: GST-tagged ING2; histone peptide array; arrays performed twice, n of 4
Outline: as §1

ING3 = settings: GST-tagged ING3; histone peptide array; arrays performed twice, n of 4
Outline: as §1

ING4 = settings: GST-tagged ING4; histone peptide array; arrays performed twice, n of 4
Outline: as §1

ING5 = settings: GST-tagged ING5; histone peptide array; arrays performed twice, n of 4
Outline: as §1

KDM4C (TTP) = settings: GST-tagged KDM4C (TTP = Tandem Tudor domain + PHD); histone peptide array; arrays performed twice, n of 4
Outline: as §1

KDM5A (1) = settings: GST-tagged KDM5A (1); histone peptide array; arrays performed twice, n of 4
Outline: as §1

KDM5A (3) = settings: GST-tagged KDM5A (3); histone peptide array; arrays performed twice, n of 4
Outline: as §1

KDM5B (1) = settings: GST-tagged KDM5B (1); histone peptide array; arrays performed twice, n of 4
Outline: as §1

KDM5B (3) = settings: GST-tagged KDM5B (3); histone peptide array; arrays performed twice, n of 4
Outline: as §1

KDM7A = settings: GST-tagged KDM7A; histone peptide array; arrays performed twice, n of 4
Outline: as §1

MLL5 = settings: GST-tagged MLL5; histone peptide array; arrays performed twice, n of 4
Outline: as §1

MORC3 (CW) = settings: GST-tagged MORC3 (CW = CW-type Zn-finger); histone peptide array; arrays performed twice, n of 4
Outline: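 GST-PHD reader, 0.5 μM, probed on 293-peptide histone array (single/combinatorial PTMs); optimized array protocol; signal = mean ± SD, n = 4.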

PHF13 = settings: GST-tagged PHF13; histone peptide array; arrays performed twice, n of 4
Outline: as §1

PHF21A = settings: GST-tagged PHF21A; histone peptide array; arrays performed twice, n of 4
Outline: as §1

PHF23 = settings: GST-tagged PHF23; histone peptide array; arrays performed twice, n of 4
Outline: as §1

PHF2 = settings: GST-tagged PHF2; histone peptide array; arrays performed twice, n of 4
Outline: as §1

PHF8 = settings: GST-tagged PHF8; histone peptide array; arrays performed twice, n of 4
Outline: as §1

PHRF1 (RP) = settings: GST-tagged PHRF1 (RP); histone peptide array; arrays performed twice, n of 4
Outline: as §1

RAG2 = settings: GST-tagged RAG2; histone peptide array; arrays performed twice, n of 4
Outline: as §1

SP140L = settings: GST-tagged SP140L; histone peptide array; arrays performed twice, n of 4
Outline: as §1

TAF3 = settings: GST-tagged TAF3; histone peptide array; arrays performed twice, n of 4
Outline: as §1

TRIM66 (PB) = settings: GST-tagged TRIM66 (PB = PHD + Bromodomain); histone peptide array; arrays performed twice, n of 4
Outline: as §1

Row | Substance | Array Heatmap signal, AIRE (PP) (AIRE (PP)) | Array Heatmap signal, BAZ2B (BAZ2B) | Array Heatmap signal, BPTF (PB) (BPTF (PB)) | Array Heatmap signal, CHD4 (PPCC) (CHD4 (PPCC)) | Array Heatmap signal, CHD5 (PCC) (CHD5 (PCC)) | Array Heatmap signal, CHD5 (PPCC) (CHD5 (PPCC)) | Array Heatmap signal, DIDO1 (DIDO1) | Array Heatmap signal, DPF2 (PPC2W2) (DPF2 (PPC2W2)) | Array Heatmap signal, ING1 (ING1) | Array Heatmap signal, ING2 (ING2) | Array Heatmap signal, ING3 (ING3) | Array Heatmap signal, ING4 (ING4) | Array Heatmap signal, ING5 (ING5) | Array Heatmap signal, KDM4C (TTP) (KDM4C (TTP)) | Array Heatmap signal, KDM5A (1) (KDM5A (1)) | Array Heatmap signal, KDM5A (3) (KDM5A (3)) | Array Heatmap signal, KDM5B (1) (KDM5B (1)) | Array Heatmap signal, KDM5B (3) (KDM5B (3)) | Array Heatmap signal, KDM7A (KDM7A) | Array Heatmap signal, MLL5 (MLL5) | other results
1 | H4K5ac + K12ac: H4 1-23 | 0.3771 | 0.4409 | 0.414 | 0.585 | 0.8553 | 0.532 | 0.8034 | 0.7316 | 0.5734 | 0.648 | 0.4957 | 0.4639 | 0.3605 | 0.4758 | 0.4472 | 0.5097 | 0.6768 | 0.4813 | 0.3306 | 0.6047 | Array Heatmap signal, MORC3 (CW) (MORC3 (CW)): 0.4134; Array Heatmap signal, PHF13 (PHF13): 0.6317; Array Heatmap signal, PHF21A (PHF21A): 0.4826; Array Heatmap signal, PHF23 (PHF23): 0.5561; Array Heatmap signal, PHF2 (PHF2): 0.5746; Array Heatmap signal, PHF8 (PHF8): 0.3854; Array Heatmap signal, PHRF1 (RP) (PHRF1 (RP)): 0.4375; Array Heatmap signal, RAG2 (RAG2): 0.3116; Array Heatmap signal, SP140L (SP140L): 0.3768; Array Heatmap signal, TAF3 (TAF3): 0.366; Array Heatmap signal, TRIM66 (PB) (TRIM66 (PB)): 0.6577
2 | H4K5ac: H4 1-23 [Peptide H4K5ac] | 0.3943 | 0.4414 | 0.3451 | 0.5634 | 0.7301 | 0.5269 | 0.6701 | 0.6533 | 0.5387 | 0.5879 | 0.4744 | 0.4388 | 0.3447 | 0.4448 | 0.4372 | 0.423 | 0.6329 | 0.4665 | 0.3174 | 0.5676 | Array Heatmap signal, MORC3 (CW) (MORC3 (CW)): 0.3392; Array Heatmap signal, PHF13 (PHF13): 0.6012; Array Heatmap signal, PHF21A (PHF21A): 0.436; Array Heatmap signal, PHF23 (PHF23): 0.5421; Array Heatmap signal, PHF2 (PHF2): 0.5353; Array Heatmap signal, PHF8 (PHF8): 0.3344; Array Heatmap signal, PHRF1 (RP) (PHRF1 (RP)): 0.4272; Array Heatmap signal, RAG2 (RAG2): 0.2578; Array Heatmap signal, SP140L (SP140L): 0.3459; Array Heatmap signal, TAF3 (TAF3): 0.3079; Array Heatmap signal, TRIM66 (PB) (TRIM66 (PB)): 0.6888
